According to patent US11458123B2 (Arvinas, Inc., priority 2016, dated 2022):

tested on: tau protein; assay: Tau protein in vitro degradation assay (Western blot, Tau-13 antibody); assay type: cell-based, human; details: SK-N-SH cells; 72 hours of incubation; tested at 300 nM, 100 nM, 33 nM and 11 nM; Western blot, Tau-13 antibody
Summary of the method: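 Tau degradation read by Tau-13 Western blot (detects all human tau forms) of SDS-PAGE-resolved lysates from SK-N-SH cells. Cells were plated at least 18 h before 72 h exposure to PROTACs at either 1000/300/100 nM or 300/100/33/11 nM.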

Q: For `Cn1c2ccncc2c2ccc(-c3ccc(O[C@H]4C[C@@H](Oc5ccc(C#CCCCCOc6ccc7c(c6)C(=O)N(C6CCC(=O)NC6=O)C7=O)cn5)C4)nc3)cc21` (some centres unmarked) [Compound 144, 2-(2,6-dioxopiperidin-3-yl)-5-(6-(6-((1s,3s)-3-(5-(5-methyl-5H-pyrido[4,3-b]indol-7-yl)pyridin-2-yloxy)cyclobutoxy)pyridin-3-yl)hex-5-ynyloxy)isoindoline-1,3-dione], which “Degradation activity* (highest amount of degradation observed at any dosage; tau protein remaining)” value is on record?
A: C (>80% tau protein remaining after 72 hours of incubation with the test compound)

Q: How did the “Degradation activity* (highest amount of degradation observed at any dosage; tau protein remaining)” value turn out when `Cn1c2ccncc2c2ccc(-c3ccc(O[C@H]4C[C@@H](Oc5ccc(CCCCCCOc6ccc7c(c6)C(=O)N(C6CCC(=O)NC6=O)C7=O)cn5)C4)nc3)cc21` (some centres unmarked) [Compound 145, 2-(2,6-dioxopiperidin-3-yl)-5-(6-(6-((1s,3s)-3-(5-(5-methyl-5H-pyrido[4,3-b]indol-7-yl)pyridin-2-yloxy)cyclobutoxy)pyridin-3-yl)hexyloxy)isoindoline-1,3-dione] was run?
A: C (>80% tau protein remaining after 72 hours of incubation with the test compound)

Q: With `Cn1c2ccncc2c2ccc(-c3ccc(OCCCOc4ccc(C#CCCCCOc5ccc6c(c5)C(=O)N(C5CCC(=O)NC5=O)C6=O)cn4)nc3)cc21` (centres unmarked) [Compound 146, 2-(2,6-dioxopiperidin-3-yl)-5-((6-(6-(3-((5-(5-methyl-5H-pyrido[4,3-b]indol-7-yl)pyridin-2-yl)oxy)propoxy)pyridin-3-yl)hex-5-yn-1-yl)oxy)isoindoline-1,3-dione] as the compound, how does the “Degradation activity* (highest amount of degradation observed at any dosage; tau protein remaining)” value read?
A: C (>80% tau protein remaining after 72 hours of incubation with the test compound)

Q: Which “Degradation activity* (highest amount of degradation observed at any dosage; tau protein remaining)” value does the source give for `Cn1c2ccncc2c2ccc(-c3ccc(O[C@H]4C[C@H](Oc5ccc(CCCCCCOc6ccc7c(c6)C(=O)N(C6CCC(=O)NC6=O)C7=O)cc5)C4)nc3)cc21` (some centres unmarked) [Compound 147, 2-(2,6-dioxopiperidin-3-yl)-5-((6-(4-((1r,3r)-3-((5-(5-methyl-5H-pyrido[4,3-b]indol-7-yl)pyridin-2-yl)oxy)cyclobutoxy)phenyl)hexyl)oxy)isoindoline-1,3-dione] here?
A: C (>80% tau protein remaining after 72 hours of incubation with the test compound)

Q: For `O=C1CCC(N2C(=O)c3ccc(N4CC(OCCCOCCCO[C@H]5C[C@H](Oc6ncc(-c7ccc8c(c7)[nH]c7ccncc78)cc6C(F)(F)F)C5)C4)cc3C2=O)C(=O)N1` (some centres unmarked) [Compound 148, 5-(3-(3-(3-((1r,3r)-3-((5-(5H-pyrido[4,3-b]indol-7-yl)-3-(trifluoromethyl)pyridin-2-yl)oxy)cyclobutoxy)propoxy)propoxy)azetidin-1-yl)-2-(2,6-dioxopiperidin-3-yl)isoindoline-1,3-dione], which “Degradation activity* (highest amount of degradation observed at any dosage; tau protein remaining)” value is on record?
A: B (≤80% and >50% tau protein remaining after 72 hours of incubation with the test compound)

Q: For `Cn1c2ccncc2c2ccc(-c3ccc(O[C@H]4C[C@H](Oc5ccc(CCCCCCOc6ccc7c(c6)C(=O)N(C6CCC(=O)NC6=O)C7=O)nn5)C4)nc3)cc21` (some centres unmarked) [Compound 149, 2-(2,6-dioxopiperidin-3-yl)-5-((6-(6-((1r,3r)-3-((5-(5-methyl-5H-pyrido[4,3-b]indol-7-yl)pyridin-2-yl)oxy)cyclobutoxy)pyridazin-3-yl)hexyl)oxy)isoindoline-1,3-dione], which “Degradation activity* (highest amount of degradation observed at any dosage; tau protein remaining)” value is on record?
A: B (≤80% and >50% tau protein remaining after 72 hours of incubation with the test compound)

Q: With `Cn1c2ccncc2c2ccc(-c3ccc(O[C@H]4C[C@H](OCCCC(F)(F)CN5CC6(C5)CN(c5ccc7c(c5)C(=O)N(C5CCC(=O)NC5=O)C7=O)C6)C4)nc3)cc21` (some centres unmarked) [Compound 150, 5-(6-(2,2-difluoro-5-((1r,3r)-3-((5-(5-methyl-5H-pyrido[4,3-b]indol-7-yl)pyridin-2-yl)oxy)cyclobutoxy)pentyl)-2,6-diazaspiro[3.3]heptan-2-yl)-2-(2,6-dioxopiperidin-3-yl)isoindoline-1,3-dione] as the compound, how does the “Degradation activity* (highest amount of degradation observed at any dosage; tau protein remaining)” value read?
A: B (≤80% and >50% tau protein remaining after 72 hours of incubation with the test compound)

Q: For `Cn1c2ccncc2c2ccc(-c3ccc(O[C@H]4C[C@H](Oc5cnc(CCCCCCOc6ccc7c(c6)C(=O)N(C6CCC(=O)NC6=O)C7=O)nc5)C4)nc3)cc21` (some centres unmarked) [Compound 151, 2-(2,6-dioxopiperidin-3-yl)-5-((6-(5-((1r,3r)-3-((5-(5-methyl-5H-pyrido[4,3-b]indol-7-yl)pyridin-2-yl)oxy)cyclobutoxy)pyrimidin-2-yl)hexyl)oxy)isoindoline-1,3-dione], which “Degradation activity* (highest amount of degradation observed at any dosage; tau protein remaining)” value is on record?
A: B (≤80% and >50% tau protein remaining after 72 hours of incubation with the test compound)

Q: `Cn1c2ccncc2c2ccc(-c3ccc(O[C@H]4C[C@H](Oc5ccc(C#CCN6CC(Oc7ccc8c(c7)C(=O)N(C7CCC(=O)NC7=O)C8=O)C6)nc5)C4)nc3)cc21` (some centres unmarked) [Compound 152, 2-(2,6-dioxopiperidin-3-yl)-5-((1-(3-(5-((1r,3r)-3-((5-(5-methyl-5H-pyrido[4,3-b]indol-7-yl)pyridin-2-yl)oxy)cyclobutoxy)pyridin-2-yl)prop-2-yn-1-yl)azetidin-3-yl)oxy)isoindoline-1,3-dione] was tested. Which “Degradation activity* (highest amount of degradation observed at any dosage; tau protein remaining)” value did it give?
A: A (≤50% tau protein remaining after 72 hours of incubation with the test compound)

Q: With `Cn1c2ccncc2c2ccc(-c3ccc(O[C@H]4C[C@H](OCCCCCOC(CC5CN(c6ccc7c(c6)C(=O)N(C6CCC(=O)NC6=O)C7=O)C5)C(F)(F)F)C4)nc3)cc21` (some centres unmarked) [Compound 153, 2-(2,6-dioxopiperidin-3-yl)-5-(3-(3,3,3-trifluoro-2-((5-((1r,3r)-3-((5-(5-methyl-5H-pyrido[4,3-b]indol-7-yl)pyridin-2-yl)oxy)cyclobutoxy)pentyl)oxy)propyl)azetidin-1-yl)isoindoline-1,3-dione] as the compound, how does the “Degradation activity* (highest amount of degradation observed at any dosage; tau protein remaining)” value read?
A: B (≤80% and >50% tau protein remaining after 72 hours of incubation with the test compound)

Q: With `Cn1c2ccncc2c2ccc(-c3ccc(O[C@H]4C[C@H](OCCCCCCOC(C5CN(c6ccc7c(c6)C(=O)N(C6CCC(=O)NC6=O)C7=O)C5)C(F)(F)F)C4)nc3)cc21` (some centres unmarked) [Compound 154, 2-(2,6-dioxopiperidin-3-yl)-5-(3-(2,2,2-trifluoro-1-((6-((1r,3r)-3-((5-(5-methyl-5H-pyrido[4,3-b]indol-7-yl)pyridin-2-yl)oxy)cyclobutoxy)hexyl)oxy)ethyl)azetidin-1-yl)isoindoline-1,3-dione] as the compound, how does the “Degradation activity* (highest amount of degradation observed at any dosage; tau protein remaining)” value read?
A: C (>80% tau protein remaining after 72 hours of incubation with the test compound)

Q: How did the “Degradation activity* (highest amount of degradation observed at any dosage; tau protein remaining)” value turn out when `Cn1c2ccncc2c2ccc(-c3ccc(O[C@H]4C[C@H](OCCOc5ccc(OC6CN(c7ccc8c(c7)C(=O)N(C7CCC(=O)NC7=O)C8=O)C6)nc5)C4)nc3)cc21` (some centres unmarked) [Compound 155, 2-(2,6-dioxopiperidin-3-yl)-5-(3-((5-(2-((1r,3r)-3-((5-(5-methyl-5H-pyrido[4,3-b]indol-7-yl)pyridin-2-yl)oxy)cyclobutoxy)ethoxy)pyridin-2-yl)oxy)azetidin-1-yl)isoindoline-1,3-dione] was run?
A: C (>80% tau protein remaining after 72 hours of incubation with the test compound)

Q: Which “Degradation activity* (highest amount of degradation observed at any dosage; tau protein remaining)” value does the source give for `Cn1c2ccncc2c2ccc(-c3ccc(O[C@H]4C[C@H](Oc5ccc(CCCOC6CN(c7ccc8c(c7)C(=O)N(C7CCC(=O)NC7=O)C8=O)C6)nc5)C4)nc3)cc21` (some centres unmarked) [Compound 156, 2-(2,6-dioxopiperidin-3-yl)-5-(3-(3-(5-((1r,3r)-3-((5-(5-methyl-5H-pyrido[4,3-b]indol-7-yl)pyridin-2-yl)oxy)cyclobutoxy)pyridin-2-yl)propoxy)azetidin-1-yl)isoindoline-1,3-dione] here?
A: C (>80% tau protein remaining after 72 hours of incubation with the test compound)

Q: For `Cn1c2ccncc2c2ccc(-c3ccc(O[C@H]4C[C@H](C(=O)N5CC6(CC(OCCCCOc7ccc8c(c7)C(=O)N(C7CCC(=O)NC7=O)C8=O)C6)C5)C4)nc3)cc21` (some centres unmarked) [Compound 157, 2-(2,6-dioxopiperidin-3-yl)-5-(4-((2-((1r,3r)-3-((5-(5-methyl-5H-pyrido[4,3-b]indol-7-yl)pyridin-2-yl)oxy)cyclobutane-1-carbonyl)-2-azaspiro[3.3]heptan-6-yl)oxy)butoxy)isoindoline-1,3-dione], which “Degradation activity* (highest amount of degradation observed at any dosage; tau protein remaining)” value is on record?
A: C (>80% tau protein remaining after 72 hours of incubation with the test compound)

Q: With `Cn1c2ccncc2c2ccc(-c3ccc(O[C@H]4C[C@H](OC5CCN(c6cc(OCCOc7ccc8c(c7)C(=O)N(C7CCC(=O)NC7=O)C8=O)cnn6)CC5)C4)nc3)cc21` (some centres unmarked) [Compound 158, 2-(2,6-dioxopiperidin-3-yl)-5-(2-((6-(4-((1r,3r)-3-((5-(5-methyl-5H-pyrido[4,3-b]indol-7-yl)pyridin-2-yl)oxy)cyclobutoxy)piperidin-1-yl)pyridazin-4-yl)oxy)ethoxy)isoindoline-1,3-dione] as the compound, how does the “Degradation activity* (highest amount of degradation observed at any dosage; tau protein remaining)” value read?
A: C (>80% tau protein remaining after 72 hours of incubation with the test compound)

Q: How did the “Degradation activity* (highest amount of degradation observed at any dosage; tau protein remaining)” value turn out when `Cn1c2ccncc2c2ccc(-c3ccc(O[C@H]4C[C@@H](Oc5ccc(C#CCOC6CN(c7ccc8c(c7)C(=O)N(C7CCC(=O)NC7=O)C8=O)C6)nc5)C4)nc3)cc21` (some centres unmarked) [Compound 159, 2-(2,6-dioxopiperidin-3-yl)-5-(3-((3-(5-((1 s,3 s)-3-((5-(5-methyl-5H-pyrido[4,3-b]indol-7-yl)pyridin-2-yl)oxy)cyclobutoxy)pyridin-2-yl)prop-2-yn-1-yl)oxy)azetidin-1-yl)isoindoline-1,3-dione] was run?
A: C (>80% tau protein remaining after 72 hours of incubation with the test compound)

Q: For `Cn1c2ccncc2c2ccc(-c3ccc(O[C@H]4C[C@@H](Oc5ccc(CCCOC6CN(c7ccc8c(c7)C(=O)N(C7CCC(=O)NC7=O)C8=O)C6)nc5)C4)nc3)cc21` (some centres unmarked) [Compound 160, 2-(2,6-dioxopiperidin-3-yl)-5-(3-(3-(5-((1 s,3s)-3-((5-(5-methyl-5H-pyrido[4,3-b]indol-7-yl)pyridin-2-yl)oxy)cyclobutoxy)pyridin-2-yl)propoxy)azetidin-1-yl)isoindoline-1,3-dione], which “Degradation activity* (highest amount of degradation observed at any dosage; tau protein remaining)” value is on record?
A: B (≤80% and >50% tau protein remaining after 72 hours of incubation with the test compound)
